Where a SMILES comes first, the peptide text is derived from it. Bridges are numbered along the chain shown (N, C = ends).
How the values were obtained:
[1] = test system: aged rat model for post-menopausal osteoporosis; assay: Vertebral compression of L5 (trabecular bone); assay type: in vivo, Sprague-Dawley rats (Rattus Norvegicus); conditions: slow release pellet 0.01 mg/day, 12 weeks
Experimental: Ninety-six aged Sprague-Dawley rats were randomly assigned to one of eight groups. The first two groups were sham operated. Group 1 was kept as a Sham control and Group 2 was treated with 2.5 mg/kg/day of recombinant human GH (rhGH) (BresaGen). The remaining six groups arrived from Harlan, ovariectomized (OVX). This surgery was performed approximately 8 days before the commencement of treatment. Group 3 was left as a control for the OVX model. Group 4 was given a treatment of 2.5 mg/kg/day of rhGH. Group 5 was treated with a low dose of AOD peptide (LAOD) 0.75 mg/kg/day and Group 6 was treated with a high dose of AOD peptide (HAOD) 2.0 mg/kg/day. […]
Statistical analysis was performed using statistical software, SPSS (version 11.0). Comparisons involving two groups were analyzed by independent student's t-test. Multiple comparisons were analyzed by one-way ANOVA analysis using the pairwise comparison Protected Fisher's Least Significant Difference (LSD) post hoc test. […]
Digital images were taken and image analysis software (ImageJ 1.28u, NIH) was used to determine the height and cross-sectional area of the vertebral body. […] While preloading the samples, the distance between the platens was measured using digital calipers. The gauge length was then determined by subtracting the height of the jig with the distance between the platens. […]

C57B1/6J (Ob/Ob) mouse = conditions: from AU 693478; cited from earlier work

In the case of 17B-estradiol [Estrogen], the “strength and stiffness (vertebral compression L5), decrease caused by OVX” value [1] is reported as “did not prevent a decrease” and the “stress and elastic modulus values (vertebral compression L5) compared to OVX” value [1] is reported as “higher”.
Compound `CC[C@H](C)[C@H](NC(=O)[C@H](CCCNC(=N)N)NC(=O)[C@H](CC(C)C)NC(=O)[C@@H](N)Cc1ccc(O)cc1)C(=O)N[C@H](C(=O)N[C@@H](CCC(N)=O)C(=O)N[C@H]1CSSC[C@@H](C(=O)NCC(=O)N[C@@H](Cc2ccccc2)C(=O)O)NC(=O)[C@H](CO)NC(=O)CNC(=O)[C@H](CCC(=O)O)NC(=O)[C@H](C(C)C)NC(=O)[C@H](CO)NC(=O)[C@H](CCCNC(=N)N)NC1=O)C(C)C` [AOD, Tyr Leu Arg Ile Val Gln Cys Arg Ser Val Glu Gly Ser Cys Gly Phe] (H-YLRIVQCRSVEGSCGF-OH; disulfide 7-14; N-terminus and C-terminus assumed) has a solubility greater than 1000 µg/mL.
In the case of “hGH 177-191: synthetic peptide corresponding to amino acid residues 177-191 of the human growth hormone sequence (LRIVQCRSVEGSCGF; UniProt P01241 203-217, looked up, fragment)”, the adipose tissue mass (C57B1/6J (Ob/Ob) mouse) is listed as “reduce” and the body weight gain (C57B1/6J (Ob/Ob) mouse) is listed as “reduce”.

Reference: US8008433B2, “Methods for preventing or treating bone disorders” (Metabolic Pharmaceutical Limited, priority 2004, dated 2011)
